Reference: patent US7592160B2, “Processes for producing isomaltose and isomaltitol and use thereof” (Kabushiki Kaisha Hayashibara Seibutsu Kagaku Kenkyujo, priority 2001, dated 2009)

How the values were obtained:
Design in all cases: key: −: no saccharide-transferred product was detected through transfer reaction to acceptor; ±: a saccharide-transferred product was detected in an amount less than one percent through transfer reaction to acceptor; +: a saccharide-transferred product was detected in an amount over one percent but less than 10% through transfer reaction to acceptor; ++: a saccharide-transferred product was detected in an amount over ten percent through transfer reaction to acceptor
[1] = test system: α-isomaltosylglucosaccharide-forming enzyme; assay: Transfer-acceptor specificity, enzyme of C9 strain; format: biochemical, Bacillus globisporus C9 strain; conditions: acceptor 1.6%, PINE-DEX #100 donor 4%, one unit/g donor, 30° C., pH 6.0, 24 hours
Procedure: (§1) Using various saccharides, it was tested whether the saccharides were used as transferring-acceptors for α-isomaltosylglucosaccharide-forming enzyme. A solution of D-glucose, D-xylose, L-xylose, D-galactose, D-fructose, D-mannose, D-arabinose, D-fucose, D-psicose, L-sorbose, L-rhamnose, methyl-α-glucopyranoside, methyl-β-glucopyranoside, N-acetyl-glucosamine, sorbitol, α,α-trehalose, isomaltose, isomaltotriose, cellobiose, gentibiose, glycerol, maltitol, lactose, sucrose, α-cyclodextrin, β-cyclodextrin, γ-cyclodextrin, or L-ascorbic acid was prepared. To each solution with a saccharide concentration of 1.6% was added “PINE-DEX #100”, a partial starch hydrolyzate, as a saccharide donor, to give a concentration of 4%, and admixed with one unit/g saccharide donor, d.s.b., of either of purified specimens of α-isomaltosylglucosaccharide-forming enzyme from Bacillus globisporus C9 strain obtained by the method in Experiment 4-2, Bacillus globisporus C11 strain obtained by the method in Experiment 7-2, Bacillus globisporus N75 strain obtained by the method in Experiment 11-2, or Arthrobacter globiformis A19 strain obtained by the method in Experiment 15-2, and incubated at 30° C. and pH 6.0 for 24 hours, except that pH 8.4 was used for the enzyme from Arthrobacter globiformis A19 strain. The reaction mixtures of the post-enzymatic reactions were analyzed on gas chromatography (abbreviated as “GLC” hereinafter) for monosaccharides and disaccharides as acceptors, and on HPLC for trisaccharides as acceptors to confirm whether these saccharides could be used as the transfer acceptors of the above enzymes. In the case of performing GLC, the following apparatuses and conditions were used: GLC apparatus, “GC-16A” commercialized by Shimadzu Corporation, Tokyo, Japan; column, a stainless-steel column, 3 mm in diameter and 2 m in length, packed with 2% “SILICONE OV-17/CHROMOSOLV W”, commercialized by GL Sciences Inc., Tokyo, Japan; carrier gas, nitrogen gas at a flow rate of 40 ml/min under temperature conditions of increasing from 160° C. to 320° C. at an increasing temperature rate of 7.5° C./min; and detection, a hydrogen flame ionization detector. In the case of performing HPLC analysis, the following apparatuses and conditions were used: HPLC apparatus, “CCPD” commercialized by Tosoh Corporation, Tokyo, Japan; column, “ODS-AQ-303” commercialized by YMC Co., Ltd., Tokyo, Japan; eluent, water at a flow rate of 0.5 ml/min; and detection, a differential refractometer.

[2] = test system: α-isomaltosylglucosaccharide-forming enzyme; assay: Transfer-acceptor specificity, enzyme of C11 strain; format: biochemical, Bacillus globisporus C11 strain; conditions: acceptor 1.6%, PINE-DEX #100 donor 4%, one unit/g donor, 30° C., pH 6.0, 24 hours
Procedure: as §1

[3] = test system: α-isomaltosylglucosaccharide-forming enzyme; assay: Transfer-acceptor specificity, enzyme of N75 strain; format: biochemical, Bacillus globisporus N75 strain; conditions: acceptor 1.6%, PINE-DEX #100 donor 4%, one unit/g donor, 30° C., pH 6.0, 24 hours
Procedure: as §1

[4] = test system: α-isomaltosylglucosaccharide-forming enzyme; assay: Transfer-acceptor specificity, enzyme of A19 strain; format: biochemical, Arthrobacter globiformis A19 strain; conditions: acceptor 1.6%, PINE-DEX #100 donor 4%, one unit/g donor, 30° C., pH 8.4, 24 hours
Procedure: as §1

Row | SMILES | Product of transferring reaction, Enzyme of A19 strain [4] | Product of transferring reaction, Enzyme of C9 strain [1] | Product of transferring reaction, Enzyme of C11 strain [2] | Product of transferring reaction, Enzyme of N75 strain [3]
1 | O=C(CO)[C@@H](O)[C@H](O)[C@@H](O)CO [L-Sorbose, L-sorbose] | + (a saccharide-transferred product was detected in an amount over one percent but less than 10% through transfer reaction to acceptor) | + (a saccharide-transferred product was detected in an amount over one percent but less than 10% through transfer reaction to acceptor) | + (a saccharide-transferred product was detected in an amount over one percent but less than 10% through transfer reaction to acceptor) | + (a saccharide-transferred product was detected in an amount over one percent but less than 10% through transfer reaction to acceptor)
2 | O=C[C@@H](O)[C@H](O)[C@@H](O)CO [L-Xylose, L-xylose] | + (a saccharide-transferred product was detected in an amount over one percent but less than 10% through transfer reaction to acceptor) | ++ (a saccharide-transferred product was detected in an amount over ten percent through transfer reaction to acceptor) | ++ (a saccharide-transferred product was detected in an amount over ten percent through transfer reaction to acceptor) | ++ (a saccharide-transferred product was detected in an amount over ten percent through transfer reaction to acceptor)
3 | CO[C@H]1O[C@H](CO)[C@@H](O)[C@H](O)[C@H]1O [Methyl-α-glucopyranoside, methyl-α-glucopyranoside] | ++ (a saccharide-transferred product was detected in an amount over ten percent through transfer reaction to acceptor) | ++ (a saccharide-transferred product was detected in an amount over ten percent through transfer reaction to acceptor) | ++ (a saccharide-transferred product was detected in an amount over ten percent through transfer reaction to acceptor) | ++ (a saccharide-transferred product was detected in an amount over ten percent through transfer reaction to acceptor)
4 | CO[C@@H]1O[C@H](CO)[C@@H](O)[C@H](O)[C@H]1O [Methyl-β-glucopyranoside, methyl-β-glucopyranoside] | ++ (a saccharide-transferred product was detected in an amount over ten percent through transfer reaction to acceptor) | ++ (a saccharide-transferred product was detected in an amount over ten percent through transfer reaction to acceptor) | ++ (a saccharide-transferred product was detected in an amount over ten percent through transfer reaction to acceptor) | ++ (a saccharide-transferred product was detected in an amount over ten percent through transfer reaction to acceptor)

Now from value to compound, other results behind:

Row | Product of transferring reaction, Enzyme of A19 strain [4] | SMILES | Product of transferring reaction, Enzyme of C9 strain [1] | Product of transferring reaction, Enzyme of C11 strain [2] | Product of transferring reaction, Enzyme of N75 strain [3]
5 | − | CC(=O)N[C@H]1C(O)O[C@H](CO)[C@@H](O)[C@@H]1O (stereo partly drawn) [N-Acetylglucosamine, N-acetyl-glucosamine] | + (a saccharide-transferred product was detected in an amount over one percent but less than 10% through transfer reaction to acceptor) | + (a saccharide-transferred product was detected in an amount over one percent but less than 10% through transfer reaction to acceptor) | + (a saccharide-transferred product was detected in an amount over one percent but less than 10% through transfer reaction to acceptor)
6 | − | OC[C@@H](O)[C@@H](O)[C@H](O)[C@@H](O)CO [Sorbitol, sorbitol] | − | − | −
7 | − | OC[C@H]1O[C@@H]2O[C@H]3[C@H](O)[C@@H](O)[C@@H](O[C@H]4[C@H](O)[C@@H](O)[C@@H](O[C@H]5[C@H](O)[C@@H](O)[C@@H](O[C@H]6[C@H](O)[C@@H](O)[C@@H](O[C@H]7[C@H](O)[C@@H](O)[C@@H](O[C@H]1[C@H](O)[C@H]2O)O[C@@H]7CO)O[C@@H]6CO)O[C@@H]5CO)O[C@@H]4CO)O[C@@H]3CO [α-Cyclodextrin, α-cyclodextrin] | − | − | −
8 | − | OC[C@H]1O[C@@H]2O[C@H]3[C@H](O)[C@@H](O)[C@@H](O[C@H]4[C@H](O)[C@@H](O)[C@@H](O[C@H]5[C@H](O)[C@@H](O)[C@@H](O[C@H]6[C@H](O)[C@@H](O)[C@@H](O[C@H]7[C@H](O)[C@@H](O)[C@@H](O[C@H]8[C@H](O)[C@@H](O)[C@@H](O[C@H]1[C@H](O)[C@H]2O)O[C@@H]8CO)O[C@@H]7CO)O[C@@H]6CO)O[C@@H]5CO)O[C@@H]4CO)O[C@@H]3CO [β-Cyclodextrin, β-cyclodextrin] | − | − | −
9 | − | OC[C@H]1O[C@@H]2O[C@H]3[C@H](O)[C@@H](O)[C@@H](O[C@H]4[C@H](O)[C@@H](O)[C@@H](O[C@H]5[C@H](O)[C@@H](O)[C@@H](O[C@H]6[C@H](O)[C@@H](O)[C@@H](O[C@H]7[C@H](O)[C@@H](O)[C@@H](O[C@H]8[C@H](O)[C@@H](O)[C@@H](O[C@H]9[C@H](O)[C@@H](O)[C@@H](O[C@H]1[C@H](O)[C@H]2O)O[C@@H]9CO)O[C@@H]8CO)O[C@@H]7CO)O[C@@H]6CO)O[C@@H]5CO)O[C@@H]4CO)O[C@@H]3CO [γ-Cyclodextrin, γ-cyclodextrin] | − | − | −
